In ChEMBL document CHEMBL5338783, “Discovery of an Anti-TNF-α 9-mer Peptide from a T7 Phage Display Library for the Treatment of Inflammatory Bowel Disease” (J Med Chem, 2023):
The source made the active and inactive calls. The rule behind the calls is not given here. Peptide text beside a SMILES is read from it.

Tests used:
Mus musculus [1] = test: Anti-colitis activity against DSS-induced acute colitis in C57BL/6 mouse model assessed as reduction in granulocyte infiltration in colon at 0.5 to 1 mg/kg, ip daily for 11 days by H and E staining based analysis; format: functional, organism-based; conditions: dose 0.5-1 mg/kg, time 11.0 day
RAW264.7 [2] = test: Antiinflammatory activity in mouse RAW264.7 cells assessed as decrease in LPS-stimulated IL-1beta mRNA level incubated for 3 hrs by RT-qPCR analysis; format: functional, cell-based; conditions: dose 25-100 µM
Tumor necrosis factor = Tumor necrosis factor (Homo sapiens, UniProt P01375); test: Binding affinity to recombinant TNF-alpha (unknown origin) assessed as dissociation constant incubated for 10 mins by MST assay
Sequence of Tumor necrosis factor (P01375 whole entry): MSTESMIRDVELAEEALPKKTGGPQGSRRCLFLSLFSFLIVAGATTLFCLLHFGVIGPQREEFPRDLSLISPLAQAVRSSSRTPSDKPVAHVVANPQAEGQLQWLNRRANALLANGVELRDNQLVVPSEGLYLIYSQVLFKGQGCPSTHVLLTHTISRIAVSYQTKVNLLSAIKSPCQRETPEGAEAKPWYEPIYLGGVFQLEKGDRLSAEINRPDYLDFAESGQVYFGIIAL

BMDM [3] = test: Antiinflammatory activity in LPS-stimulated mouse BMDM cells assessed as inhibition of NF-kappaB signalling pathway incubated for 3 hrs by Western blot analysis; format: functional, cell-based; conditions: dose 25-100 µM
RAW264.7 [4] = test: Antiinflammatory activity in mouse RAW264.7 cells assessed as decrease in LPS-stimulated IL-1beta protein expression incubated for 3 hrs by flow cytometry; format: functional, cell-based; conditions: dose 25-100 µM
[5] = target: T1, Tumor necrosis factor receptor superfamily member 1A (Homo sapiens) (UniProt P19438); test: Binding affinity to TNFR1 (unknown origin) at 488.3 to 500 uM incubated for 10 mins by MST assay; conditions: dose 488.3-500 µM
T1 sequence (whole entry): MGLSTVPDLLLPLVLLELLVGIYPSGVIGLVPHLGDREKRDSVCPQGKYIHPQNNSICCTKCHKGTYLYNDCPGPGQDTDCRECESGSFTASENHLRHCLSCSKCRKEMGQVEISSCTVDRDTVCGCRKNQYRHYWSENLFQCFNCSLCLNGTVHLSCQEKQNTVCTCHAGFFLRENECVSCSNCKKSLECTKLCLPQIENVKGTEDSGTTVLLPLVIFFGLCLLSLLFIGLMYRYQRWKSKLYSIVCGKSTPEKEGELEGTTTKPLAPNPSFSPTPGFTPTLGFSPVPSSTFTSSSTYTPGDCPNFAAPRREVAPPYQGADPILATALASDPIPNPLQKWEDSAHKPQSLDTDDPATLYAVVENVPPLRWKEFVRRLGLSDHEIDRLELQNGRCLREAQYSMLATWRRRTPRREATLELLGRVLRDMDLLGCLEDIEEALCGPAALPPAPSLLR

Mus musculus [6] = test: Anti-colitis activity against DSS-induced acute colitis in C57BL/6 mouse model assessed as increase in body weight value at 1 mg/kg, ip daily for 7 days; format: functional; conditions: time 7 day
RAW264.7 [7] = test: Disruption of NF-kappaB/p65 nuclear import in LPS-stimulated mouse RAW264.7 cells preincubated for 30 mins followed by LPS stimulation measured after 3 hrs by immunofluorescence based microscopy; format: functional, cell-based
[8] = target: T2, Tumor necrosis factor receptor superfamily member 1B (Homo sapiens) (UniProt P20333); test: Inhibition of TNF-alpha (unknown origin) binding to TNFR2 by SPR analysis
T2 sequence (whole entry): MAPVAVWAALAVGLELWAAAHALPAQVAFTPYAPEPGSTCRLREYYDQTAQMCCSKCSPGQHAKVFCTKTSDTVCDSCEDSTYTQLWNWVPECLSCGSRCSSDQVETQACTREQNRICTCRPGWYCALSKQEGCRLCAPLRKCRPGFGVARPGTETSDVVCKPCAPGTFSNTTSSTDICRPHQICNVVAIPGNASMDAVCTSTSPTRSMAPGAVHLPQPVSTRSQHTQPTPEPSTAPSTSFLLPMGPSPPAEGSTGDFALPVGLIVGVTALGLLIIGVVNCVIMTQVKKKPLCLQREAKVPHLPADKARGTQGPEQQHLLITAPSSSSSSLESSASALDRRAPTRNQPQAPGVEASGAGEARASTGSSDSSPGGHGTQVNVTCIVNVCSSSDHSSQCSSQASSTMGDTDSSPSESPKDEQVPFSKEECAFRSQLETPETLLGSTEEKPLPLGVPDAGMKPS

Mus musculus [9] = test: Anti-colitis activity against DSS-induced acute colitis in C57BL/6 mouse model assessed as reversal of body weight loss at 0.5 to 1 mg/kg, ip daily for 11 days; format: functional, organism-based; conditions: dose 0.5-1 mg/kg, time 11.0 day
Mus musculus [10] = test: Anti-colitis activity against DSS-induced acute colitis in C57BL/6 mouse model assessed as decrease in disease activity index at 1 mg/kg, ip daily for 7 days; format: functional; conditions: time 7 day
BMDM [11] = test: Antiinflammatory activity in mouse BMDM cells assessed as decrease in LPS-stimulated TNF-alpha mRNA level incubated for 3 hrs by RT-qPCR analysis; format: functional, cell-based; conditions: dose 25-100 µM
Mus musculus [12] = test: Antiinflammatory activity against DSS-induced acute colitis in C57BL/6 mouse model assessed as decrease in JNK1/2 phosphorylation in colon tissue administered intraperitoneally daily for 7 days by Western blot analysis; format: functional, organism-based; conditions: dose 0.5-1 mg/kg, route ip, time 7.0 day
RAW264.7 [13] = test: Antiinflammatory activity in mouse RAW264.7 cells assessed as decrease in LPS-stimulated TNF-alpha mRNA level at 25 to 100 uM incubated for 3 hrs by RT-qPCR analysis; format: functional, cell-based; conditions: dose 25-100 µM
BMDM [14] = test: Antiinflammatory activity in mouse BMDM cells assessed as decrease in LPS-stimulated IL-6 mRNA level incubated for 3 hrs by RT-qPCR analysis; format: functional, cell-based; conditions: dose 25-100 µM
RAW264.7 [15] = test: Cytotoxicity against mouse RAW264.7 cells upto 1000 uM; format: toxicity, cell-based; conditions: raw264.7, 1000 µM
BMDM [16] = test: Antiinflammatory activity in mouse BMDM cells assessed as decrease in LPS-stimulated IL-1beta mRNA level incubated for 3 hrs by RT-qPCR analysis; format: functional, cell-based; conditions: dose 25-100 µM
Mus musculus [17] = test: Anti-colitis activity against DSS-induced acute colitis in C57BL/6 mouse model assessed as […] in IL-1beta mRNA level at 0.5 to 1 mg/kg, ip daily for 7 days by RT-qPCR analysis; format: functional, organism-based; conditions: dose 0.5-1 mg/kg, time 7.0 day
RAW264.7 [18] = test: Antiinflammatory activity in LPS-stimulated mouse RAW264.7 cells assessed as inhibition of p38 phosphorylation incubated for 3 hrs by Western blot analysis; format: functional, cell-based; conditions: dose 25-100 µM
Mus musculus [19] = test: Anti-colitis activity against DSS-induced acute colitis in C57BL/6 mouse model assessed as reduction in colonic epithelial disruption at 0.5 to 1 mg/kg, ip daily for 11 days by H and E staining based analysis; format: functional, organism-based; conditions: dose 0.5-1 mg/kg, time 11.0 day
Mus musculus [20] = test: Anti-colitis activity against DSS-induced acute colitis in C57BL/6 mouse model assessed as increase in spleen index at 0.5 to 1 mg/kg, ip daily for 7 days; format: functional, organism-based; conditions: dose 0.5-1 mg/kg, time 7.0 day
[21] = target: T2, Tumor necrosis factor receptor superfamily member 1B (Homo sapiens); test: Binding affinity to TNFR2 (unknown origin) at 488.3 to 500 uM incubated for 10 mins by MST assay; conditions: dose 488.3-500 µM
RAW264.7 [22] = test: Antiinflammatory activity in LPS-stimulated mouse RAW264.7 cells assessed as inhibition of JNK1/2 phosphorylation incubated for 3 hrs by Western blot analysis; format: functional, cell-based; conditions: dose 25-100 µM
Mus musculus [23] = test: Antiinflammatory activity against DSS-induced acute colitis in C57BL/6 mouse model assessed as decrease in IkappaBalpha phosphorylation in colon tissue administered intraperitoneally daily for 7 days by Western blot analysis; format: functional, organism-based; conditions: dose 0.5-1 mg/kg, route ip, time 7.0 day
Mus musculus [24] = test: Anti-colitis activity against DSS-induced acute colitis in C57BL/6 mouse model assessed as […] in IL-6 mRNA level at 0.5 to 1 mg/kg, ip daily for 7 days by RT-qPCR analysis; format: functional, organism-based; conditions: dose 0.5-1 mg/kg, time 7.0 day

C[C@H](N)C(=O)N[C@@H](CS)C(=O)N[C@@H](Cc1cnc[nH]1)C(=O)N[C@@H](C)C(=O)N[C@@H](Cc1c[nH]c2ccccc12)C(=O)N[C@@H](C)C(=O)N1CCC[C@H]1C(=O)N[C@H](C(=O)N[C@@H](CCCNC(=N)N)C(=O)O)[C@@H](C)O (H-ACHAWAPTR-OH)
Activity (Mus musculus [1]): Active | Activity (RAW264.7 [2]): Active | Kd (Tumor necrosis factor): 5.14 µM | Activity (BMDM [3]): Dose-Dependent Effect | Activity (RAW264.7 [4]): Dose-Dependent Effect | Activity [5]: inactive | Activity (Mus musculus [6]): 0.24 | Activity (RAW264.7 [7]): Dose-Dependent Effect | inhibition [8]: Active | Activity (Mus musculus [9]): Active | Activity (Mus musculus [10]): -1.25 | Activity (BMDM [11]): Dose-Dependent Effect | Activity (Mus musculus [12]): Dose-Dependent Effect | Activity (RAW264.7 [13]): Dose-Dependent Effect | Activity (BMDM [14]): Dose-Dependent Effect | Activity (RAW264.7 [15]): Non-Toxic | Activity (BMDM [16]): Dose-Dependent Effect | Activity (Mus musculus [17]): Active | Activity (RAW264.7 [18]): Dose-Dependent Effect | Activity (Mus musculus [19]): Active | Activity (Mus musculus [20]): Active | Activity [21]: inactive | Activity (RAW264.7 [22]): Dose-Dependent Effect | Activity (Mus musculus [23]): Dose-Dependent Effect | Activity (Mus musculus [24]): Active
